# Counter-ions that a name gives are not always drawn.
# Molecular target: Lethal factor protease (Bacillus anthracis, UniProt P15917)
# Experiment: biochemical
# Chain of Lethal factor protease (P15917 34-809 limits assumed): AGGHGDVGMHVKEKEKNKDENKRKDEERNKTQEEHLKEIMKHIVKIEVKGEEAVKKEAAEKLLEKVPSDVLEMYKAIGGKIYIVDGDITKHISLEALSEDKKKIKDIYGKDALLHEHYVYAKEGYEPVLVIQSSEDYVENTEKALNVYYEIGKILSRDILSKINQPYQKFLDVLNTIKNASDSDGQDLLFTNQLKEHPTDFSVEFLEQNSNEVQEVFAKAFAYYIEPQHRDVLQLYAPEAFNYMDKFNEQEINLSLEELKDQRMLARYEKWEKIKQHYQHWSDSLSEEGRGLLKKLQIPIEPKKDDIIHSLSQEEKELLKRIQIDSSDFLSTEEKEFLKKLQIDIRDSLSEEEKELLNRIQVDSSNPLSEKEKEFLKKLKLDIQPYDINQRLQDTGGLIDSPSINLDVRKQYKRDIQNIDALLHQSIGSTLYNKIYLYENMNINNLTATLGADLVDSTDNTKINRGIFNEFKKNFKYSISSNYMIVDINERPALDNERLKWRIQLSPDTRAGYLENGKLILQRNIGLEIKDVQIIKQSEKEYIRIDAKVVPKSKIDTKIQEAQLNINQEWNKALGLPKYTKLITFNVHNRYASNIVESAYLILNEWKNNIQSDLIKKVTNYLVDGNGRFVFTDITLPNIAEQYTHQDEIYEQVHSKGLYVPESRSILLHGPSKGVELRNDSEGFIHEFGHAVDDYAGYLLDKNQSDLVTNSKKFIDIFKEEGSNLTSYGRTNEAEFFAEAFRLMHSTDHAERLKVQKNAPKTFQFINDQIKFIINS
row,Compound,Ki [µM]
1,"Cc1cc(N[C@H](CCCCNCc2cc(C)c(OCc3ccccc3)c(C)c2)C(=O)NO)ccc1F [Compound 167969, (R)-6-(4-Benzyloxy-3,5-dimethyl-benzylamino)-2-(4-fluoro-3-methyl-phenylamino)-hexanoic acid hydroxyamide]",0.27
2,"Cc1cc(N[C@@H](C)C(=O)NO)ccc1F [Compound 167364, (S)-2-(4-Fluoro-3-methyl-phenylamino)-N-hydroxy-propionamide]",87
3,"Cc1cc(N[C@H](CCCCN(CC2CCCCC2)CC2CCCCC2)C(=O)NO)ccc1F [Compound 167991, (R)-6-(Bis-cyclohexylmethyl-amino)-2-(4-fluoro-3-methyl-phenylamino)-hexanoic acid hydroxyamide]",16.6
4,"Cc1cc(N[C@H](CCCCNC(C)c2ccc(F)cc2)C(=O)NO)ccc1F (stereo partly drawn) [Compound 168010, (R)-2-(4-Fluoro-3-methyl-phenylamino)-6-[1-(4-fluoro-phenyl)-ethylamino]-hexanoic acid hydroxyamide]",0.07
5,"Cc1cc(N[C@H](CCCCN(Cc2ccccc2)Cc2ccccc2)C(=O)NO)ccc1F [Compound 167982, (R)-6-Dibenzylamino-2-(4-fluoro-3-methyl-phenylamino)-hexanoic acid hydroxyamide]",1.8
6,"CCCCC(Nc1cc(C)c(OC)c(C)c1)C(=O)NO (stereo not shown) [Compound 167325, 2-(4-Methoxy-3,5-dimethyl-phenylamino)-hexanoic acid hydroxyamide]",30.4
7,"Cc1cc(N[C@H](CCCCNC(=O)C(c2ccccc2)c2ccccc2)C(=O)NO)cc(C)c1F [Compound 167610, (R)-6-Diphenylacetylamino-2-(4-fluoro-3,5-dimethyl-phenylamino)-hexanoic acid hydroxyamide]",1.34
8,"Cc1cc(N[C@H](CCCCNC(=O)CCCc2ccccc2)C(=O)NO)ccc1F [Compound 167994, (R)-2-(4-Fluoro-3-methyl-phenylamino)-6-(4-phenyl-butyrylamino)-hexanoic acid hydroxyamide]",0.65
9,"Cc1cc(N[C@H](CCCCNC(=O)c2ccccc2)C(=O)NO)cc(C)c1F [Compound 167587, (R)—N-[5-(4-Fluoro-3,5-dimethyl-phenylamino)-5-hydroxycarbamoyl-pentyl]-benzamide]",0.97
10,"Cc1cc(N[C@@H](C(=O)NO)C(C)C)ccc1F [Compound 167267, (R)-2-(4-Fluoro-3-methyl-phenylamino)-N-hydroxy-3-methyl-butyramide hydrochloride]",15.7
11,"Cc1cc(N[C@H](CCCCNC(=O)Cc2ccccc2)C(=O)NO)cc(C)c1F [Compound 167588, (R)-2-(4-Fluoro-3,5-dimethyl-phenylamino)-6-phenylacetylamino-hexanoic acid hydroxyamide]",1.2
12,"CCCCC(Nc1ccccc1)C(=O)NO (stereo not shown) [Compound 167210, 2-Phenylamino-hexanoic acid hydroxyamide]",203
13,"CCCCC(Nc1ccc(OC)c(C)c1)C(=O)NO (stereo not shown) [Compound 167324, 2-(4-Methoxy-3-methyl-phenylamino)-hexanoic acid hydroxyamide]",19.3
14,"CCCCC(Nc1cc(OC)cc(OC)c1)C(=O)NO (stereo not shown) [Compound 167772, 2-(3,5-Dimethoxy-phenylamino)-hexanoic acid hydroxyamide]",257
15,"CCCCC(Nc1ccc(Cl)cc1)C(=O)NO (stereo not shown) [Compound 167256, 2-(4-Chloro-phenylamino)-hexanoic acid hydroxyamide]",187
16,"Cc1cc(N[C@@H](C)C(=O)NO)cc(C)c1F [Compound 167498, (S)-2-(4-Fluoro-3,5-dimethyl-phenylamino)-N-hydroxy-propionamide]",51
17,"CCCCC(Nc1cc(Cl)cc(Cl)c1)C(=O)NO (stereo not shown) [Compound 167718, 2-(3,5-Dichloro-phenylamino)-hexanoic acid hydroxyamide]",12.2
18,"CCCCC(Nc1cccc(OC)c1)C(=O)NO (stereo not shown) [Compound 167276, 2-(3-Methoxy-phenylamino)-hexanoic acid hydroxyamide]",140
19,"Cc1cc(NC(=O)NCCCC[C@@H](Nc2cc(C)c(F)c(C)c2)C(=O)NO)ccc1F [Compound 167614, (R)-2-(4-Fluoro-3,5-dimethyl-phenylamino)-6-[3-(4-fluoro-3-methyl-phenyl)-ureido]-hexanoic acid hydroxyamide]",0.28
20,"CCCCC(Nc1cc(C)cc(Cl)c1)C(=O)NO (stereo not shown) [Compound 167645, 2-(3-Chloro-5-methyl-phenylamino)-hexanoic acid hydroxyamide]",2.2
21,"Cc1cccc(CN(CCCC[C@@H](Nc2cc(C)c(F)c(C)c2)C(=O)NO)Cc2cccc(C)c2)c1 [Compound 167932, (R)-6-[Bis-(3-methyl-benzyl)-amino]-2-(4-fluoro-3,5-dimethyl-phenylamino)-hexanoic acid hydroxyamide]",1.1
22,"Cc1cc(N[C@@H](C(=O)NO)C2CCCCC2)cc(C)c1F [Compound 167424, (R)-2-Cyclohexyl-2-(4-fluoro-3,5-dimethyl-phenylamino)-N-hydroxy-acetamide]",0.79

row,Compound,Ki [µM]
1,"Cc1cc(NC(C)C(=O)NO)ccc1F (stereo not shown) [Compound 167235, 2-(4-Fluoro-3-methyl-phenylamino)-N-hydroxy-propionamide]",1.4
2,"Cc1cc(N[C@H](CCCCNS(=O)(=O)c2cc(C)c(F)c(C)c2)C(=O)NO)cc(C)c1F [Compound 167530, (R)-6-(4-Fluoro-3,5-dimethyl-benzenesulfonylamino)-2-(4-fluoro-3,5-dimethyl-phenylamino)-hexanoic acid hydroxyamide]",0.37
3,"Cc1cc(N[C@H](CCCCNCc2ccc3c(c2)OCO3)C(=O)NO)ccc1F [Compound 168145, (R)-6-[(Benzo[1,3]dioxol-5-ylmethyl)-amino]-2-(4-fluoro-3-methyl-phenylamino)-hexanoic acid hydroxyamide]",0.17
4,"CCCC[C@@H](Nc1ccc(F)c(C)c1)C(=O)NO [Compound 167273, (R)-2-(4-Fluoro-3-methyl-phenylamino)-hexanoic acid hydroxyamide]",0.71
5,"Cc1cc(N[C@H](CCCCN(Cc2cc(C)c(F)c(C)c2)Cc2cc(C)c(F)c(C)c2)C(=O)NO)ccc1F [Compound 167971, (R)-6-[Bis-(4-fluoro-3,5-dimethyl-benzyl)-amino]-2-(4-fluoro-3-methyl-phenylamino)-hexanoic acid hydroxyamide]",5.2
6,"CCCCC(Nc1cc(C)c(F)c(C)c1)C(=O)NO (stereo not shown) [Compound 167454, 2-(4-Fluoro-3,5-dimethyl-phenylamino)-hexanoic acid hydroxyamide]",0.8
7,"Cc1cc(N[C@H](CCCCNS(C)(=O)=O)C(=O)NO)cc(C)c1F [Compound 167531, (R)-2-(4-Fluoro-3,5-dimethyl-phenylamino)-6-methanesulfonylamino-hexanoic acid hydroxyamide]",1
8,"CCCCC(Nc1ccc(F)cc1)C(=O)NO (stereo not shown) [Compound 167211, 2-(4-Fluoro-phenylamino)-hexanoic acid hydroxyamide]",81
9,"Cc1cc(N[C@H](CCCCNCc2cc(C)c(F)c(C)c2)C(=O)NO)ccc1F [Compound 167968, (R)-6-(4-Fluoro-3,5-dimethyl-benzylamino)-2-(4-fluoro-3-methyl-phenylamino)-hexanoic acid hydroxyamide]",0.1
10,"CC[C@@H](Nc1cc(C)c(F)c(C)c1)C(=O)NO [Compound 167450, (R)-2-(4-Fluoro-3,5-dimethyl-phenylamino)-N-hydroxy-butyramide]",0.67
11,"Cc1cc(N[C@H](CCc2ccccc2)C(=O)NO)cc(C)c1F [Compound 167406, (R)-2-(4-Fluoro-3,5-dimethyl-phenylamino)-N-hydroxy-4-phenyl-butyramide]",0.51
12,"Cc1cc(N[C@H](CC2CCCCC2)C(=O)NO)cc(C)c1F [Compound 167405, (R)-3-Cyclohexyl-2-(4-fluoro-3,5-dimethyl-phenylamino)-N-hydroxy-propionamide]",1.48
13,"CCCC[C@H](Nc1ccc(F)c(C)c1)C(=O)NO [Compound 167274, (S)-2-(4-Fluoro-3-methyl-phenylamino)-hexanoic acid hydroxyamide]",116
14,"Cc1cc(N[C@H](CCCCNCCc2ccccc2)C(=O)NO)ccc1F [Compound 167979, (R)-2-(4-Fluoro-3-methyl-phenylamino)-6-phenethylamino-hexanoic acid hydroxyamide]",0.21
15,"Cc1cc(N[C@H](CCCCNCc2ccc3sccc3c2)C(=O)NO)ccc1F [Compound 168182, (R)-6-[(Benzo[b]thiophen-5-ylmethyl)-amino]-2-(4-fluoro-3-methyl-phenylamino)-hexanoic acid hydroxyamide]",0.15
16,"Cc1cc(N[C@H](CCCCNC(=O)CCC(=O)O)C(=O)NO)cc(C)c1F [Compound 167620, (R)—N-[5-(4-Fluoro-3,5-dimethyl-phenylamino)-5-hydroxycarbamoyl-pentyl]-succinamic acid]",3.5
17,"CCCCC(Nc1ccc(C)cc1)C(=O)NO (stereo not shown) [Compound 167255, 2-p-Tolylamino-hexanoic acid hydroxyamide]",296
18,"Cc1cc(C(=O)NCCCC[C@@H](Nc2cc(C)c(F)c(C)c2)C(=O)NO)ccc1F [Compound 167551, (R)-4-Fluoro-N-[5-(4-fluoro-3,5-dimethyl-phenylamino)-5-hydroxycarbamoyl-pentyl]-3-methyl-benzamide]",0.39
19,"Cc1cc(NC(Cc2ccc(OC(F)(F)F)cc2)C(=O)NO)ccc1F (stereo not shown) [Compound 167233, 2-(4-Fluoro-3-methyl-phenylamino)-N-hydroxy-3-(4-trifluoromethoxy-phenyl)-propionamide]",102
20,"Cc1cc(N[C@H](CCCCn2c(C)ccc2C)C(=O)NO)cc(C)c1F [Compound 167605, (R)-6-(2,5-Dimethyl-pyrrol-1-yl)-2-(4-fluoro-3,5-dimethyl-phenylamino)-hexanoic acid hydroxyamide]",2
21,"Cc1cc(CNCCCC[C@@H](Nc2ccc(F)c(C)c2)C(=O)NO)ccc1F [Compound 167946, (R)-6-(4-Fluoro-3-methyl-benzylamino)-2-(4-fluoro-3-methyl-phenylamino)-hexanoic acid hydroxyamide]",0.06
